Assay results: BindingDB's records for doi:10.1021/jm00035a014 (University of Paris, 1994)

What was measured:
[1] = target: Glutamyl aminopeptidase (Oryctolagus cuniculus); experiment: Inhibition of aminopeptidase A (APA)
[2] = target: Aminopeptidase N (Sus scrofa) (UniProt P15145); experiment: Inhibitory potency against aminopeptidase N (APN)
Chain of Aminopeptidase N (Sus scrofa) (P15145 whole entry, looked up): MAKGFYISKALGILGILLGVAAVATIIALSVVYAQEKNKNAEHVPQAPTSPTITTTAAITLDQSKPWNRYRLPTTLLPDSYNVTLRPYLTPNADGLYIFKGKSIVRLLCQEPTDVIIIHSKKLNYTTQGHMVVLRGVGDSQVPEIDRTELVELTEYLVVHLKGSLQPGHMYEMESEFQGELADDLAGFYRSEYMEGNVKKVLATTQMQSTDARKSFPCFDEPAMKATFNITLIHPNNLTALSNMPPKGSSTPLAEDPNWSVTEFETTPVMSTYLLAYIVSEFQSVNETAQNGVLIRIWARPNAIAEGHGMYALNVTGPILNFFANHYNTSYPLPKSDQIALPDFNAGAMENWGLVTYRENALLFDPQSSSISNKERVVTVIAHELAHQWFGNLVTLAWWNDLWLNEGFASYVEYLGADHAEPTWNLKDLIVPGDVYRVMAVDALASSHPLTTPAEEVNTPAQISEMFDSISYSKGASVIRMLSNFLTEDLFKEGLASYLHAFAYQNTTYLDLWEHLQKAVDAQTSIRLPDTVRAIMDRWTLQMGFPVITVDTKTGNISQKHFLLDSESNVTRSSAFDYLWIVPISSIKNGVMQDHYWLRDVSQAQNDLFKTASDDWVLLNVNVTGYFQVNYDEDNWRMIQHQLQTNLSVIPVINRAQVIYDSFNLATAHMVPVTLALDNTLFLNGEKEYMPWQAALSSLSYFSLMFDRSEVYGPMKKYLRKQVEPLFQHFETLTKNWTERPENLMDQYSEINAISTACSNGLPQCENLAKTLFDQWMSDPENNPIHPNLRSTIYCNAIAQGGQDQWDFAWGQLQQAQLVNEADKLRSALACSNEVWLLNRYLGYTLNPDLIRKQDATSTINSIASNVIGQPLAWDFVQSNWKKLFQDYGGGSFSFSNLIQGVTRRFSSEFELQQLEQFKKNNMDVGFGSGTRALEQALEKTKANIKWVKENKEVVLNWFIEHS

SMILES	Ki [1] [µM]	IC50 [2] [µM]
NC(Cc1ccccc1)CP(=O)(O)O (configuration not stated) [1-Benzyl-2-phosphono-ethyl-ammonium]		500
NC(CS)CC1CCCC(C(=O)O)C1 (configuration not stated) [2-(3-Carboxy-cyclohexyl)-1-mercaptomethyl-ethyl-ammonium]	> 3	
NC(CC(=O)O)Cc1ccccc1 (configuration not stated) [3-Amino-4-phenyl-butyric acid]		800
NC(CS)CC1CCC(C(=O)O)CC1 (configuration not stated) [4-(2-Amino-3-mercapto-propyl)-cyclohexanecarboxylic acid]	1.9	
N[C@@H](CS)CCC(=O)O [(R)-4-Amino-5-mercapto-pentanoic acid]	2.3	
N[C@H](CCS)CCC(=O)O [(S)-4-Amino-6-mercapto-hexanoic acid]	2	
NC(CS)CC1CCC(CC(=O)O)CC1 (configuration not stated) [[4-(2-Amino-3-mercapto-propyl)-cyclohexyl]-acetic acid]	2.8	

Now from value to molecule, other results behind:

Ki [1] [µM]	SMILES	IC50 [2] [µM]
2.4	NC(CS)c1cccc(C(=O)O)c1 (configuration not stated) [1-(3-Carboxy-phenyl)-2-mercapto-ethyl-ammonium]	
2.7	NC(CS)Cc1ccc(C(=O)O)cc1 (configuration not stated) [2-(4-Carboxy-phenyl)-1-mercaptomethyl-ethyl-ammonium]	
0.84	NC(CS)Cc1cccc(C(=O)O)c1 (configuration not stated) [3-(2-Amino-3-mercapto-propyl)-benzoic acid]	
> 3	NC(CS)c1ccc(C(=O)O)cc1 (configuration not stated) [4-(1-Amino-2-mercapto-ethyl)-benzoic acid]	
2.2	NC(CS)Cc1ccc(CC(=O)O)cc1 (configuration not stated) [[4-(2-Amino-3-mercapto-propyl)-phenyl]-acetic acid]	
